pKi: −log10 of the molar value. Values joined by “and” are separate entries in the source; they are usually repeats but may differ in a detail not shown here. Equal entries are not always repeated.

In this experiment the target is D(2) dopamine receptor (Rattus norvegicus, UniProt P61169).
Sequence of D(2) dopamine receptor (P61169 whole entry): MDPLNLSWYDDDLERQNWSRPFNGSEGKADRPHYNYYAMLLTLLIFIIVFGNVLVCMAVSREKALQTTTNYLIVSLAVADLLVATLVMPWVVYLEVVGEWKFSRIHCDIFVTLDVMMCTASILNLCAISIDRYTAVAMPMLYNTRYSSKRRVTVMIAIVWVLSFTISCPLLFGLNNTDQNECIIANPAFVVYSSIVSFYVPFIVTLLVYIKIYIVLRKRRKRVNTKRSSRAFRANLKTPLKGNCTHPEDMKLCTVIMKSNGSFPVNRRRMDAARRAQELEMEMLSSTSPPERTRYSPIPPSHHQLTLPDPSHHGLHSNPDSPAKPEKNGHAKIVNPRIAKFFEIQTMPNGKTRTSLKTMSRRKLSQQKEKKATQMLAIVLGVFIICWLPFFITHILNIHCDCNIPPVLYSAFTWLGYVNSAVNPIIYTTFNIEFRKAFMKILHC
`CN1CCc2cc3c(cc2[C@H]1[C@@H]1OC(=O)c2c1ccc1c2OCO1)OCO3` [(R)-6-((S)-6-methyl-5,6,7,8-tetrahydro-[1,3]dioxolo[4,5-g]isoquinolin-5-yl)isobenzofuro[5,4-d][1,3]dioxol-8(6H)-one] had a pKi of less than 5.00.
The same measure for `C=CCc1ccccc1OC[C@@H](O)CNC(C)C` [ALPRENOLOL,(-)]: < 5.00 and 5.16.
In turn, `C=CCN1CC[C@]2(C)c3cc(O)ccc3C[C@@H]1[C@@H]2C` [SKF 10,047 (-)] showed a pKi of less than 5.00.
`COc1cc2nc(N3CCN(C(=O)c4ccco4)CC3)nc(N)c2cc1OC` [[3H]-Minipress] had a pKi of less than 5.00.
For the molecule `O=C(c1ccc(F)cc1)C1CCN(CCn2c(=O)[nH]c3ccccc3c2=O)CC1` [3-(2-{4-[(4-fluorophenyl)carbonyl]piperidin-1-yl}ethyl)-1,2,3,4-tetrahydroquinazoline-2,4-dione], the pKi was 6.26 and 6.28.
`NCc1cc(=O)[nH]o1` had a pKi of less than 5.00.
`c1ccc2c(c1)OCC(C1=NCCN1)O2` (centres undefined): the pKi was less than 5.00.
The same measure for `CCN1CCC[C@H]1CNC(=O)c1cc(I)cc(OC)c1OC`: 10.00 and 9.92; for `CN1[C@@H]2CC[C@H]1C[C@@H](OC(=O)c1cc(Cl)cc(Cl)c1)C2` [TROPANYL 3,5-DICHLOROBENZOATE]: less than 5.00.

Values taken from BindingDB's records for doi:10.1002/syn.890150302 (Vanderbilt University, 1993).
